Ends that are not written are not given here.
How the values were obtained:
[1] = molecular target: HLA-A*02:01 (Homo sapiens, UniProt P04439, D140Y/D185E/D98H/E176V/E277Q/G131W/G231S/I119V/I121R/I166T/I218V/L300P/L318F/N151K/N90K/P208A/P217A/Q86G/Q94H/R138H/R169H/T345S); format: binding; conditions: for Average %: average of Exch I and Exch II, relative to exchange control peptide Pos (100%); for Exch I (%): first UV-induced peptide exchange; for Exch I (%) / Exch II (%): absorbance relative to exchange control peptide Pos (100%); for Exch II (%): second UV-induced peptide exchange
[2] = tested on: CD8+ T cells from HLA-02:01+ PBMCs; assay: Frequency of double positive T cells for mimic and mutant tetramers (flow cytometry); format: cell-based, human
Protocol: Preparation of PBMCs: Vials of HLA-02:01^+ PBMCs frozen from donors (Hemacare) were removed from LN2 storage and rapidly thawed in a 37° C. water bath. The cells were transferred to a 50 mL conical tube containing 40 mL warm media (RPMI 1640 medium+10% fetal bovine serum (FBS)+1% Penicillin streptomycin solution), spun at 1300 rpm for 5 minutes at room temperature. The cell pellet was resuspended in 2 mL EASYSEP™ buffer and cells were counted using trypan blue live dead marker using a haemocytometer.
Enrichment of CD8+ T cells: To enrich the CD8+ T cells from the PBMCs, EASYSEP™ Human CD8+ T Cell Isolation Kit was used as per the manufacturer's instructions. Post enrichment, the cell pellet was resuspended in Dulbecco's phosphate-buffered saline (DPBS) and cells were counted as above. To determine the viability, LIVE/DEAD™ Fixable Violet Dead Cell Stain Kit was used at 0.5 μL/1×10^6/100 μL cell suspension and incubated at room temperature for 20 minutes. At the end of incubation period, FACS buffer (DPBS+2% FBS) was added and the cells were spun at 1300 rpm for 5 minutes at room temperature. The cell pellet was resuspended in FACS buffer, trypan blue was added, and the cell count was determined using a haemocytometer. The cell density was maintained at 1×10^6/50 μL FACS buffer. 3 μL Fc block was added per 1×10^6 cells and incubated for 10 minutes at room temperature in the dark. At the end of the incubation, mimic tetramer and the corresponding mutant tetramers were added at 3 μL tetramer/1×10^6 cells.
For frequency determination, 2×10^6 cells were used for test samples and 1×10^6 cells were used for control samples where negative tetramers were added in place of the mimic or mutant tetramers. A sample where no tetramers were added was kept as unstained control. The samples were incubated at room temperature for 30 minutes in dark. At the end of incubation period, CD8 antibody was added at 2 μL/1×10^6 cells and the samples were incubated for another 30 minutes at room temperature in dark. At the end of incubation, FACS buffer was added to the samples and the samples were spun at 1300 rpm for 5 minutes. The pellet was resuspended in 5 mL FACS buffer and the cells were spun at 1300 rpm for 5 minutes. The pellet was resuspended in 200 μL FACS buffer and events were acquired using the Novocyte flow cytometer.
The cells were acquired on the Novocyte flow cytometer and gated on forward scatter height (FSC-H) versus side scatter height (SSC-H). The cells high on FSC-H versus SSC-H were gated as lymphocytes. From the lymphocytes, live cells were gated by selecting the pacific blue negative cells on an FSC-H versus Pacific Blue-H plot. From the live cells, single cells were gated on FSC-H versus forward scatter area (FSC-A). CD8+ T cells were gated from the singlets as Alexa Fluor 700 positive cells. For gating phycoerythrin (PE) conjugated tetramer positive cells, the CD8^+ cells were gated on Alexa Fluor 700-H versus PE-H and the double positive cells were considered as CD8+ tetramer+. For gating allophycocyanin (APC) conjugated tetramer positive cells, the CD8^+ cells were gated on Alexa Fluor 700-H versus APC-H and the double positive cells were considered as CD8+tetramer+. All gates were set using the negative tetramers to eliminate non-specific binding. The dual positive cells that were mimic and mutant tetramer positive cells were gated by plotting PE-H versus APC-H within the CD8^+ cells.

[3] = donor 17042765, frequency of double positive T cells at least 2-fold higher than the background (negative tetramers)
[4] = donor 19054445, frequency of double positive T cells at least 2-fold higher than the background (negative tetramers)

With 6 (LVVVGACGV) [compound 6] the Average % [1] was 7.0%, the “Exch I (%)” value [1] was 6.5% and the “Exch II (%)” value [1] was 7.5%.
With 7 (LVVVGAVGV) [compound 7] the Average % [1] was 4.5%, the “Exch I (%)” value [1] was 4.3% and the “Exch II (%)” value [1] was 4.6%.
In the case of 99 (NLVPMVATL) [compound 99], the Average % [1] is reported as 23.6%, the “Exch I (%)” value [1] is reported as 26.8% and the “Exch II (%)” value [1] is reported as 20.4%.
In the case of “Mutant (SEQ ID NO: 2) Mimic (SEQ ID NO: 29): pair of tetramers loaded with mutant YLDCGIHSG (APC) and mimic YLDCGIHSV (PE) (not fully specified; cysteine pairing not given here)”, the “Frequency (%) of double positive T cells within CD8+ compartment of donors” value (from here on “Frequency (%)”) ([2]; Donor ID 20001476) is reported as 0.075%, the “Frequency (%)” value ([2]; Donor ID 20001487) is reported as 0.000% and the “Frequency (%)” value ([2]; Donor ID 20061357) is reported as 0.095%. The “Frequency (%)” value ([2]; Donor ID 20061599) was 0.000%, the “Frequency (%)” value ([2]; Donor ID 20061661) was 0.000% and the “Frequency (%)” value ([2]; Donor ID 20062224) was 0.000%. For the same substance, the “Frequency (%)” value ([2]; Donor ID 20062384) was 0.000%.
For “Mutant (SEQ ID NO: 3) Mimic (SEQ ID NO: 32): pair of tetramers loaded with mutant YLDSGIHFG (APC) and mimic YLDSGIHFV (PE) (not fully specified)”, the “Frequency (%)” value ([2]; Donor ID 20001476) was 0.051%, the “Frequency (%)” value ([2]; Donor ID 20001487) was 0.000% and the “Frequency (%)” value ([2]; Donor ID 20061357) was 0.007%. For the same substance, the “Frequency (%)” value ([2]; Donor ID 20061599) was 0.000%, the “Frequency (%)” value ([2]; Donor ID 20061661) was 0.000% and the “Frequency (%)” value ([2]; Donor ID 20062224) was 0.000%. The “Frequency (%)” value ([2]; Donor ID 20062384) was 0.023%.
“Mutant (SEQ ID NO: 9) Mimic (SEQ ID NO: 45): pair of tetramers loaded with mutant ILNREIDFA (PE) and mimic ILNREIDFV (APC) (not fully specified)” was tested, and the “Frequency (%)” value ([2]; Donor ID 17042380) was 0.05%, the “Frequency (%)” value ([2]; Donor ID 17042765) was 0.14% and the “Frequency (%)” value ([2]; Donor ID 18047563) was 0.01%. The “Frequency (%)” value ([2]; Donor ID 19053796) was 0.1%, the “Frequency (%)” value ([2]; Donor ID 19054141) was 0.03% and the “Frequency (%)” value ([2]; Donor ID 19054183) was 0.01%. For the same substance, the “Frequency (%)” value ([2]; Donor ID 19054445) was 0.24%, the “Frequency (%)” value ([2]; Donor ID 19054456) was 0.01% and the “T-cells positive for mutant-mimic pair” value [2, 3] was “positive”. The “T-cells positive for mutant-mimic pair” value ([2]; donor 19053796) was “positive” and the “T-cells positive for mutant-mimic pair” value [2, 4] was “positive”.
In the case of “Mutant (SEQ ID NO: 13) Mimic (SEQ ID NO: 59): pair of tetramers loaded with mutant KTYPVQLWV (APC) and mimic KMYPVQLWL (PE) (not fully specified)”, the “Frequency (%)” value ([2]; Donor ID 17042380) is reported as 0.04%, the “Frequency (%)” value ([2]; Donor ID 17042765) is reported as 0.13% and the “Frequency (%)” value ([2]; Donor ID 18047563) is reported as 0.01%. The “Frequency (%)” value ([2]; Donor ID 19053796) was 0.06%, the “Frequency (%)” value ([2]; Donor ID 19054141) was 0.02% and the “Frequency (%)” value ([2]; Donor ID 19054183) was 0.01%. For the same substance, the “Frequency (%)” value ([2]; Donor ID 19054445) was 0.38%, the “Frequency (%)” value ([2]; Donor ID 19054456) was 0% and the “T-cells positive for mutant-mimic pair” value [2, 3] was “positive”. The “T-cells positive for mutant-mimic pair” value ([2]; donor 19053796) was “positive” and the “T-cells positive for mutant-mimic pair” value [2, 4] was “positive”.
In the case of “Mutant (SEQ ID NO: 16) Mimic (SEQ ID NO: 64): pair of tetramers loaded with mutant ALNNMFCQL (PE) and mimic ALNNMFCQV (APC) (not fully specified; cysteine pairing not given here)”, the “Frequency (%)” value ([2]; Donor ID 20001476) is reported as 0.021%, the “Frequency (%)” value ([2]; Donor ID 20001487) is reported as 0.000% and the “Frequency (%)” value ([2]; Donor ID 20061357) is reported as 0.002%. For the same substance, the “Frequency (%)” value ([2]; Donor ID 20061599) was 0.000%, the “Frequency (%)” value ([2]; Donor ID 20061661) was 0.000% and the “Frequency (%)” value ([2]; Donor ID 20062224) was 0.016%. The “Frequency (%)” value ([2]; Donor ID 20062384) was 0.000%.
For “Mutant (SEQ ID NO: 18) Mimic (SEQ ID NO 68): pair of tetramers loaded with mutant QLWVDSTPL (APC) and mimic QLWVDSTPV (PE) (not fully specified)”, the “Frequency (%)” value ([2]; Donor ID 17042380) was 0.01%, the “Frequency (%)” value ([2]; Donor ID 17042765) was 0% and the “Frequency (%)” value ([2]; Donor ID 18047563) was 0%. The “Frequency (%)” value ([2]; Donor ID 19053796) was 0%, the “Frequency (%)” value ([2]; Donor ID 19054141) was 0% and the “Frequency (%)” value ([2]; Donor ID 19054183) was 0%. The “Frequency (%)” value ([2]; Donor ID 19054445) was 0.01%, the “Frequency (%)” value ([2]; Donor ID 19054456) was 0% and the “T-cells positive for mutant-mimic pair” value ([2]; donor 19053796) was “positive”.
“Mutant (SEQ ID NO: 22) Mimic (SEQ ID NO: 75): pair of tetramers loaded with mutant LLGRNSFEM (PE) and mimic LLGRNSFEL (APC) (not fully specified)” was tested, and the “Frequency (%)” value ([2]; Donor ID 20001476) was 0.000%, the “Frequency (%)” value ([2]; Donor ID 20001487) was 0.000% and the “Frequency (%)” value ([2]; Donor ID 20061357) was 0.004%. For the same substance, the “Frequency (%)” value ([2]; Donor ID 20061599) was 0.000%, the “Frequency (%)” value ([2]; Donor ID 20061661) was 0.000% and the “Frequency (%)” value ([2]; Donor ID 20062224) was 0.015%. The “Frequency (%)” value ([2]; Donor ID 20062384) was 0.000%.
For “Mutant (SEQ ID NO: 23) Mimic (SEQ ID NO: 78): pair of tetramers loaded with mutant VVPCEPPEV (PE) and mimic VLPCEPPEV (APC) (not fully specified; cysteine pairing not given here)”, the “Frequency (%)” value ([2]; Donor ID 20001476) was 0.153%, the “Frequency (%)” value ([2]; Donor ID 20001487) was 0.000% and the “Frequency (%)” value ([2]; Donor ID 20061357) was 0.006%. For the same substance, the “Frequency (%)” value ([2]; Donor ID 20061599) was 0.000%, the “Frequency (%)” value ([2]; Donor ID 20061661) was 0.000% and the “Frequency (%)” value ([2]; Donor ID 20062224) was 0.000%. For the same substance, the “Frequency (%)” value ([2]; Donor ID 20062384) was 0.023%.

Source: US12275766B2, “Neoantigen peptide mimics” (Janssen Biotech, Inc., priority 2020, dated 2025)
